Tested on: histone deacetylase (HDAC)
Assay: cellular acetylation assay (acetylation of histones in PC3 cells, ELISA)
Type: cell-based
Conditions: PC3 human prostate carcinoma cells; compound 1 μM; 24 h incubation; ELISA with antibodies against acetylated histone H3 or H4
Method: Therein acetylation of histones is monitored in PC3 cells. High acetylation correlates with inhibition of histone deacetylase by compounds. Cell viability is monitored in parallel to estimate the cytotoxicity of compounds.
PC3 cells, a human prostate carcinoma cell line, are seeded as 1800 cells per well of a 384-well microtiterplate in RPMI 1640 (including 5% FCS, 2 mM glutamine and pen/strep).
After 48 h at 37° C. pre-diluted compounds are added to a final concentration of 1 uM. Compounds are pre-diluted in dimethyl sulfoxide (DMSO) resulting in a final concentration of DMSO of 0.5% per well.
After 24 h incubation cell viability is determined by adding cell proliferation reagent WST-1 (Roche Molecular Biochemicals). Another 60 min later the optical density (OD) is measured (450 nm versus 690 nm).
After measurement the cell layer is prepared for the ELISA reaction. Medium is aspirated and cells are fixed in ethanol at −20° C. for 60 min. After washing with PBS/Tween the blocking solution (PBS/5% FCS/Tween) is added and the cell layer is washed again. Antibodies against acetylated histone H3 or H4 (rabbit polyklonal IgG, Upstate Biotechnologie) are added at a dilution of 1:200 for 60 min at 37° C. As a second antibody goat anti rabbit IgG (H+L) humanIgG adsorbed-HRP conjugate (Dako) is used (1:2000 diluted). Cells are washed 3 times and the peroxidase substrate ABTS is allowed to react for 30–60 min at 37° C. The OD is measured at 405 nm.
The percentage of acetylation is calculated after substraction of blank O.D.s: […]

Row | Compound | cell acetylation (PC3, 1 μM) [% of control]
1 | Nc1ccccc1NC(=O)c1cc2cc(CCO)ccc2o1 [Example 24, 5-(2-Hydroxy-ethyl)-benzofuran-2-carboxylic acid (2-amino-phenyl)-amide] | 157 % of control
2 | CC(C)N(CCOc1ccc2sc(C(=O)Nc3ccccc3N)cc2c1)C(C)C [Example 3, 5-(2-Diisopropylamino-ethoxy)-benzo[b]thiophene-2-carboxylic acid (2-amino-phenyl)-amide] | 172 % of control
3 | CN(C)CCCOc1ccc2sc(C(=O)Nc3ccccc3N)cc2c1 [Example 2, 5-(3-Dimethylamino-propoxy)-benzo[b]thiophene-2-carboxylic acid (2-amino-phenyl)-amide] | 209 % of control
4 | Nc1ccccc1NC(=O)c1cc2cc(OCCO)ccc2s1 [Example 16, 5-(2-Hydroxy-ethoxy)-benzo[b]thiophene-2-carboxylic acid (2-amino-phenyl)-amide] | 156 % of control
5 | CC(=O)Nc1ccc(C(=O)Nc2ccccc2N)cc1 [4-acetylamino-N-(2-amino-phenyl)-benzamide, reference compound] | 152 % of control

Tested on: not given
Assay: not given
Conditions: not given

Row | melting point [°C] | Compound
6 | 215 to 216 | Nc1ccccc1NC(=O)c1cc2cc(OCCO)ccc2s1 [Example 16, 5-(2-Hydroxy-ethoxy)-benzo[b]thiophene-2-carboxylic acid (2-amino-phenyl)-amide]
